Data set [1] can be described thus: Urine/serum ratio in paired samples. Format: in vivo, human. The note with it: mean of four paired samplings per subject, 17 airport employees. On the procedure: Urinary PFAS concentrations were specific-gravity adjusted. The ratio of urine and serum concentration for each PFAS (urine/serum ratio) at each sampling was calculated based on PFAS concentrations in paired serum and urine samples from 17 employees. Then the personal average urine/serum ratio was calculated using the mean value of repeated samplings for each employee.

On the set-up of data set [2]: method as in Zhang et al. 2015. As to conditions: ref Zhang et al. 2015, cited from earlier work.
Data set [3] can be described thus: Population average serum elimination rate and half-life (linear mixed model, one compartment, first-order). On the procedure:
Serum PFAS concentrations were log-transformed. Time was calculated as the elapsed days between supply of clean bottled water and […] blood sampling. We assumed one compartment, first-order elimination kinetics. In this kinetic model, the body is considered as one homogeneous volume in which mixing is instantaneous and from which PFAS could be absorbed, transferred, and eliminated according to the rate of elimination that is proportional to the concentration of PFAS in the body. Two methods were used to estimate serum elimination rate constant (k) and half-life for each PFAS:
Briefly, in the linear mixed model In Cij=αi+tijβ+Xiβ′+εij, Cij is the serum concentration of PFAS for individual i at sampling round j; αi is the subject-specific intercept (random intercept); tij is the time; β is the average slope; Xi is a vector of fixed covariates for individual i; β′ stands for the fixed effect coefficients; and εij is the random error term. We modified the model by excluding the subject-specific slope (random slope) due to a failure to converge after inclusion, which may be due to the limited number of study subjects. The negative value of the average slope ( −β ) is the population average k, and average half-life is calculated as ln2/k .
In the linear mixed model, we included only age and sex as covariates. We based covariate selection on factors that could conceivably confound the PFAS half-life estimation. Working task, duration of employment, number of glasses of water per day, blood donation, and pregnancy before mitigation of PFAS exposure from drinking water can influence the initial serum levels but would not be expected to influence the PFAS half-life.
A sensitivity analysis was performed using the same linear mixed model but with Cij as the serum levels after subtracting general background levels (using the median levels obtained from the nonexposed reference population). If the serum PFAS levels after subtraction were lower than the half of the background levels, they were replaced with half of the background levels.

The conditions of data set [4]: general Swedish population (Ronneby, 106 Swedes) with high exposure through drinking water, 2 y follow-up from 6 months after clean water; ref Li et al. 2018; cited from earlier work.
A short description of data set [5]: PFAS levels in serum samples of airport employees (LC/MS/MS). The note with it: all the serum samples, although elevated in the drinking water. The source says:
All 26 employees at the airport were invited for a blood sampling between 11 and 14 September 2018 (i.e., within 11 to 14 d after the termination of contaminated drinking-water exposure). Information on age, home address, employment history, working tasks, and sick leave and vacation days in August and September were collected by questionnaire. In addition, data on the number of glasses of water consumed per day, local fish consumption, and history of blood donation and medication were collected. For female employees, questions about menstruation, pregnancy, and duration of breast-feeding were asked.
The PFAS analysis in serum from the first sampling was immediately performed and personal results were reported to the employees. […] These 17 employees submitted four rounds of blood and first morning urine samples in parallel, at 1-month intervals. In total, there were five rounds of serum sampling (started from September) and four rounds of urine sampling (from October). For modeling of elimination, all samples were reanalyzed in a single batch. We obtained 83 serum samples with a median count of 5 (range: 4–5) samples per employee, and 59 urine samples with median of 4 (range: 1–4) samples per employee. Only one employee provided a single urine sample. The study was approved by the Regional Ethical Review Board in Lund, Sweden. All employees provided written informed consent.
Venous whole blood samples were obtained and were centrifuged for 10 min at 1,500×g at room temperature to isolate the serum on site. The serum samples were collected in 6-mL BD Vacutainer® Plus plastic serum tubes without gel (BD). Urine samples were collected in 13-mL polypropylene screw cap tubes (Sarstedt). Serum and urine samples were frozen at −20°C after sampling and transported to Lund using cold chain logistics. Serum and urine samples were stored at −80°C and −20°C , respectively, before analysis.
The serum samples, QC samples, and chemical blanks were prepared in 96-well plates with 1.5-mL flat-bottom glass vials (Biotech solutions). Serum samples were thawed for 1–2 h and mixed on a vortex shaker for approximately 10 s two times. Once after all samples were thawed and a second time before pipetting the serum to the plate. Before pipetting, the tip was pre-wetted several times, drawing a volume into the tip and dispensing it back into the tube. Sample preparation procedures for serum samples consisted of 25μL serum mixed with 25μL water, 25μL methanol, 25μL isotopically labeled internal standards in 50% acetonitrile (see Table S1), and 100μL acetonitrile. Thereafter, samples were mixed vigorous by shaking for 30 min and centrifuged at 2,600×g for 10 min at room temperature. The supernatant ( 0.2mL ) was transferred to 96-well plates with 0.5-mL conical glass vials (MicroLiter Analytical Supplies) and again centrifuged at 3,000×g for 10 min before analysis. The QC samples and chemical blanks were prepared following the same procedure as the serum samples. The calibration standards were prepared in FBS the same way as the samples, except for the addition of diluted reference standards of all analyzed compounds in 25μL of the methanol solution.
Aliquots of 4μL of the sample were analyzed using LC/MS/MS. For the analysis, a C18 column ( 4μm , 2.1mm i.d.×50mm , Genesis Lightning) was used prior to the injector to filter the mobile phases. The analytical column was an Aquity BEH ( 1.7μm , 2.1mm i.d.×100mm Waters). The mobile phases (A and B) were A: 5 mM ammonium acetate in water:methanol (50:50); and B: methanol. The mobile phase was kept at 0% B for 2.5 min after injection. A gradient was then applied over 11 min to 90% B, where it was then kept for 1.5 min. The column was then conditioned at 0% B for 2 min.

Like-named read-outs stand apart in the source and are kept apart here.

Take `O=S(=O)(O)C(F)(F)C(F)(F)C(F)(F)C(F)(F)C(F)(F)C(F)(F)C(F)(F)C(F)(F)F` [PFOS, perfluorooctane sulfonic acid]: the “Personal average urine/serum ratio, median (range)” value in data set [1] was 0.00092. Further, the results for the Urine/serum ratio in data set [2] (nonpregnant women) and in data set [2] (pregnant women) were 0.013 and 0.0004, respectively. Also, in data set [3] (PFHpS vs PFHpA, PFOS vs PFOA), the “Average half-life longer than that of the PFCA with same number of carbon atoms” value is on record as roughly 1.2 y. Besides, the Average serum half-life in data set [3] (population average, linear mixed model with original serum levels, 17 airport employees after end of drinking-water exposure) turned out to be 2.9 y. Moreover, the Average half-life in data set [4] is 3.4 y.
As for `O=C(O)C(F)(F)C(F)(F)C(F)(F)C(F)(F)F` [PFPeA, perfluoropentanoic acid], the “Level in serum samples” value in data set [5] is on record as “below LOD”.
